Results as given in patent US20060252807A1, “Novel ortho-terphenyl inhibitors of p38 kinase and methods of treating inflammatory disorders” (Kalypsys, Inc., priority 2005, published 2006).

What follows are compounds tested against T1, active p38 alpha enzyme (Upstate Biotechnology) (Homo sapiens, UniProt Q16539) (assay: p38α biochemical assay (ATP turnover, luminescent detection, Cambrex PKlight)). Conditions: p38α biochemical assay, Table 1 Biological Activity.
T1 construct: purchased Upstate Biotechnology
Method in brief: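 Active p38α phosphorylates MapkapK2 whole protein with 1.4 uM final ATP, 2 h at 30C, in Tris/MOPS buffer with MgCl2, CaCl2, EGTA, EDTA, glycerol, β-mercaptoethanol and 1 mg/ml BSA. Compounds pin-delivered from DMSO; total ATP turnover read by luminescence after PKlight addition.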

T1 sequence (Q16539 whole entry): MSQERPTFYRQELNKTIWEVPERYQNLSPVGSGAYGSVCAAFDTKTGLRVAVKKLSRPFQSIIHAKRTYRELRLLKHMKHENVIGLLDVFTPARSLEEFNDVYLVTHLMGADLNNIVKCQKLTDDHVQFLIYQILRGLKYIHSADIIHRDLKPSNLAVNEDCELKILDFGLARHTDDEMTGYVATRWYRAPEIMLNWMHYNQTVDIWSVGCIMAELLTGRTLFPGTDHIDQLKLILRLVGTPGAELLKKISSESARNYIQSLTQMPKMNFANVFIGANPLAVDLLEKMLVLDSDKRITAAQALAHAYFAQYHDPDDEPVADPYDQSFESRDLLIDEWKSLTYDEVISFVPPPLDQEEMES

Row | SMILES | IC50 [nM]
1 | COc1cccc(OC)c1C(=O)NCc1onc(-c2ccc(F)cc2)c1-c1nc(C(=O)NC(C)C)cs1 [Example 701] | > 1000
2 | COc1cccc(C(=O)NCc2onc(-c3ccc(F)cc3)c2-c2nc(C(=O)NC(C)C)cs2)c1OC [Example 703] | > 1000
3 | Cc1ccc(SCC(=O)NCc2onc(-c3ccc(F)cc3)c2-c2nc(C(=O)NC(C)C)cs2)cc1 [Example 704] | > 1000
4 | CC(C)NC(=O)c1csc(-c2c(-c3ccc(F)cc3)noc2CNC(=O)/C=C/c2ccc(Cl)cc2)n1 [Example 705] | > 1000
5 | CC(C)NC(=O)c1csc(-c2c(-c3ccc(F)cc3)noc2CNC(=O)/C=C/c2ccccc2Cl)n1 [Example 706] | > 1000
6 | CC(C)NC(=O)c1csc(-c2c(-c3ccc(F)cc3)noc2CNC(C=O)c2ccc3cc(O)ccc3c2)n1 (centres unmarked) [Example 717] | > 1000
7 | CC(C)NC(=O)c1csc(-c2c(-c3ccc(F)cc3)noc2CNC(=O)c2c(O)ccc3ccccc23)n1 [Example 718] | > 1000
8 | CC(C)NC(=O)c1csc(-c2c(-c3ccc(F)cc3)noc2CNC(=O)c2cc3ccccc3cc2O)n1 [Example 719] | > 1000
9 | CC(C)NC(=O)c1csc(-c2c(-c3ccc(F)cc3)noc2CNC(=O)c2ccc3ccccc3c2O)n1 [Example 720] | > 1000
10 | CC(C)NC(=O)c1csc(-c2c(-c3ccc(F)cc3)noc2CNC(=O)c2ccc3cccc(O)c3n2)n1 [Example 721] | > 1000
11 | CC(C)NC(=O)c1csc(-c2c(-c3ccc(F)cc3)noc2CNC(=O)C(C)NC(=O)OC(C)(C)C)n1 (centres unmarked) [Example 722] | > 1000
12 | CC(C)NC(=O)c1csc(-c2c(-c3ccc(F)cc3)noc2CNC(=O)C(C)NC(=O)OC(C)(C)C)n1 (centres unmarked) [Example 723] | > 1000
13 | CC(C)NC(=O)c1csc(-c2c(-c3ccc(F)cc3)noc2CNC(=O)c2ccccc2C(F)(F)F)n1 [Example 724] | > 1000
14 | CC(C)NC(=O)c1csc(-c2c(-c3ccc(F)cc3)noc2CNC(=O)CCc2nc3ccccc3[nH]2)n1 [Example 725] | > 1000
15 | CC(C)NC(=O)c1csc(-c2c(-c3ccc(F)cc3)noc2CNC(=O)c2cc(F)c(F)c(O)c2F)n1 [Example 729] | > 1000
16 | CC(C)NC(=O)c1csc(-c2c(-c3ccc(F)cc3)noc2CNC(=O)/C=C/c2ccc3c(c2)OCO3)n1 [Example 730] | > 1000
17 | Cc1ccc(C(=O)CCC(=O)NCc2onc(-c3ccc(F)cc3)c2-c2nc(C(=O)NC(C)C)cs2)cc1 [Example 731] | > 1000
18 | CC(C)NC(=O)c1csc(-c2c(-c3ccc(F)cc3)noc2CNC(=O)c2cc(F)c(F)cc2Cl)n1 [Example 733] | > 1000
19 | CC(C)NC(=O)c1csc(-c2c(-c3ccc(F)cc3)noc2CNC(=O)c2cc(F)c(Cl)cc2F)n1 [Example 734] | > 1000

Row | SMILES | IC50 [nM]
20 | COc1cc(/C=C/C(=O)NCc2onc(-c3ccc(F)cc3)c2-c2nc(C(=O)NC(C)C)cs2)ccc1O [Example 736] | > 1000
21 | COc1ccc(/C=C/C(=O)NCc2onc(-c3ccc(F)cc3)c2-c2nc(C(=O)NC(C)C)cs2)cc1O [Example 737] | > 1000
22 | CC(C)NC(=O)c1csc(-c2c(-c3ccc(F)cc3)noc2CNC(=O)c2cc3cc(Cl)ccc3o2)n1 [Example 739] | > 1000
23 | COc1cc(C(=O)NCc2onc(-c3ccc(F)cc3)c2-c2nc(C(=O)NC(C)C)cs2)cc(OC)c1O [Example 741] | > 1000
24 | CC(C)NC(=O)c1csc(-c2c(-c3ccc(F)cc3)noc2CNC(=O)c2ccccc2-c2ccccc2)n1 [Example 742] | > 1000
25 | CC(C)NC(=O)c1csc(-c2c(-c3ccc(F)cc3)noc2CNC(=O)c2cccc(Cl)c2[N+](=O)[O-])n1 [Example 745] | > 1000
26 | CC(C)NC(=O)c1csc(-c2c(-c3ccc(F)cc3)noc2CNC(=O)c2cc(F)c(F)cc2[N+](=O)[O-])n1 [Example 753] | > 1000
27 | CC(C)NC(=O)c1csc(-c2c(-c3ccc(F)cc3)noc2CNC(=O)Cc2ccc(C(F)(F)F)cc2)n1 [Example 754] | > 1000
28 | CC(C)Cc1ccc(C(C)C(=O)NCc2onc(-c3ccc(F)cc3)c2-c2nc(C(=O)NC(C)C)cs2)cc1 (centres unmarked) [Example 755] | > 1000
29 | CC(C)NC(=O)c1csc(-c2c(-c3ccc(F)cc3)noc2CNC(=O)c2c(F)c(F)c(F)c(F)c2F)n1 [Example 757] | > 1000
30 | COc1cc(OC)c(C(=O)NCc2onc(-c3ccc(F)cc3)c2-c2nc(C(=O)NC(C)C)cs2)c(OC)c1 [Example 758] | > 1000
31 | COc1cc(OC)c(C(=O)NCc2onc(-c3ccc(F)cc3)c2-c2nc(C(=O)NC(C)C)cs2)cc1OC [Example 759] | > 1000
32 | COc1cc(C(=O)NCc2onc(-c3ccc(F)cc3)c2-c2nc(C(=O)NC(C)C)cs2)cc(OC)c1OC [Example 760] | > 1000
33 | COc1ccc(C(=O)NCc2onc(-c3ccc(F)cc3)c2-c2nc(C(=O)NC(C)C)cs2)c(OC)c1OC [Example 761] | > 1000
34 | CC(C)NC(=O)c1csc(-c2c(-c3ccc(F)cc3)noc2CNC(=O)c2ccccc2Cc2ccccc2)n1 [Example 762] | > 1000
35 | CC(C)NC(=O)c1csc(-c2c(-c3ccc(F)cc3)noc2CNC(=O)c2cccc(Oc3ccccc3)c2)n1 [Example 763] | > 1000
36 | CC(C)NC(=O)c1csc(-c2c(-c3ccc(F)cc3)noc2CNC(=O)c2ccccc2Oc2ccccc2)n1 [Example 764] | > 1000
37 | CC(C)NC(=O)c1csc(-c2c(-c3ccc(F)cc3)noc2CNC(=O)c2ccc(Oc3ccccc3)cc2)n1 [Example 765] | > 1000
38 | CC(C)NC(=O)c1csc(-c2c(-c3ccc(F)cc3)noc2CNC(=O)c2ccc(-c3ccc(O)cc3)cc2)n1 [Example 766] | > 1000

Results, then the compound that gave them:

Row | IC50 [nM] | SMILES
39 | > 1000 | COc1ccc(C(=O)NCc2onc(-c3ccc(F)cc3)c2-c2nc(C(=O)NC(C)C)cs2)c(OC)c1 [Example 700]
40 | > 1000 | COc1cc(OC)cc(C(=O)NCc2onc(-c3ccc(F)cc3)c2-c2nc(C(=O)NC(C)C)cs2)c1 [Example 702]
41 | > 1000 | CC(C)NC(=O)c1csc(-c2c(-c3ccc(F)cc3)noc2CNC(=O)c2ccc([N+](=O)[O-])c(O)c2)n1 [Example 707]
42 | > 1000 | CC(C)NC(=O)c1csc(-c2c(-c3ccc(F)cc3)noc2CNC(=O)c2cc(O)ccc2[N+](=O)[O-])n1 [Example 708]
43 | > 1000 | CC(C)NC(=O)c1csc(-c2c(-c3ccc(F)cc3)noc2CNC(=O)c2cc([N+](=O)[O-])ccc2O)n1 [Example 709]
44 | > 1000 | CC(C)NC(=O)c1csc(-c2c(-c3ccc(F)cc3)noc2CNC(=O)c2cc([N+](=O)[O-])ccc2F)n1 [Example 710]
45 | > 1000 | CC(C)NC(=O)c1csc(-c2c(-c3ccc(F)cc3)noc2CNC(=O)c2cc(F)ccc2[N+](=O)[O-])n1 [Example 711]
46 | > 1000 | CC(C)NC(=O)c1csc(-c2c(-c3ccc(F)cc3)noc2CNC(=O)c2ccc(F)c([N+](=O)[O-])c2)n1 [Example 712]
47 | > 1000 | COc1ccc(Cl)cc1C(=O)NCc1onc(-c2ccc(F)cc2)c1-c1nc(C(=O)NC(C)C)cs1 [Example 713]
48 | > 1000 | COc1cc(Cl)ccc1C(=O)NCc1onc(-c2ccc(F)cc2)c1-c1nc(C(=O)NC(C)C)cs1 [Example 714]
49 | > 1000 | CC(C)NC(=O)c1csc(-c2c(-c3ccc(F)cc3)noc2CNC(=O)Cc2ccc(O)c(Cl)c2)n1 [Example 715]
50 | > 1000 | COc1cc(C(=O)NCc2onc(-c3ccc(F)cc3)c2-c2nc(C(=O)NC(C)C)cs2)cc(Cl)n1 [Example 716]
51 | > 1000 | CC(C)NC(=O)c1csc(-c2c(-c3ccc(F)cc3)noc2CNC(=O)c2cccc(Cl)c2Cl)n1 [Example 726]
52 | > 1000 | CC(C)NC(=O)c1csc(-c2c(-c3ccc(F)cc3)noc2CNC(=O)c2ccc(Cl)cc2Cl)n1 [Example 727]
53 | > 1000 | CC(C)NC(=O)c1csc(-c2c(-c3ccc(F)cc3)noc2CNC(=O)c2cc(Cl)ccc2Cl)n1 [Example 728]
54 | > 1000 | CCCCCc1ccc(C(=O)NCc2onc(-c3ccc(F)cc3)c2-c2nc(C(=O)NC(C)C)cs2)cc1 [Example 732]
55 | > 1000 | CCN(CC)c1ccc(C(=O)NCc2onc(-c3ccc(F)cc3)c2-c2nc(C(=O)NC(C)C)cs2)cc1 [Example 735]
56 | > 1000 | CCCCOc1ccc(C(=O)NCc2onc(-c3ccc(F)cc3)c2-c2nc(C(=O)NC(C)C)cs2)cc1 [Example 738]
57 | > 1000 | COc1ccc([N+](=O)[O-])c(C(=O)NCc2onc(-c3ccc(F)cc3)c2-c2nc(C(=O)NC(C)C)cs2)c1 [Example 740]
58 | > 1000 | CC(C)NC(=O)c1csc(-c2c(-c3ccc(F)cc3)noc2CNC(=O)c2cccc(Br)c2)n1 [Example 743]
59 | > 1000 | CC(C)NC(=O)c1csc(-c2c(-c3ccc(F)cc3)noc2CNC(=O)c2ccc(Br)cc2)n1 [Example 744]
60 | > 1000 | CC(C)NC(=O)c1csc(-c2c(-c3ccc(F)cc3)noc2CNC(=O)c2cc([N+](=O)[O-])ccc2Cl)n1 [Example 746]
61 | ≤ 1000 | CC(C)NC(=O)c1csc(-c2c(-c3ccc(F)cc3)noc2CNC(=O)c2ccc([N+](=O)[O-])cc2Cl)n1 [Example 747]
62 | > 1000 | CC(C)NC(=O)c1csc(-c2c(-c3ccc(F)cc3)noc2CNC(=O)c2ccc(Cl)cc2[N+](=O)[O-])n1 [Example 748]
63 | > 1000 | CC(C)NC(=O)c1csc(-c2c(-c3ccc(F)cc3)noc2CNC(=O)c2ccc(Cl)c([N+](=O)[O-])c2)n1 [Example 749]
64 | > 1000 | CC(C)NC(=O)c1csc(-c2c(-c3ccc(F)cc3)noc2CNC(=O)c2cc(Cl)ccc2[N+](=O)[O-])n1 [Example 750]
65 | > 1000 | CC(C)NC(=O)c1csc(-c2c(-c3ccc(F)cc3)noc2CNC(=O)c2cccc(Br)n2)n1 [Example 751]
66 | > 1000 | CC(C)NC(=O)c1csc(-c2c(-c3ccc(F)cc3)noc2CNC(=O)c2cncc(Br)c2)n1 [Example 752]
67 | > 1000 | CC(C)NC(=O)c1csc(-c2c(-c3ccc(F)cc3)noc2CNC(=O)c2cc(Cl)c(O)c(Cl)c2)n1 [Example 756]
68 | > 1000 | Cc1cc(C(=O)NCc2onc(-c3ccc(F)cc3)c2-c2nc(C(=O)NC(C)C)cs2)ccc1Br [Example 767]
